Our source for the IC50 values is patent EP0475531A1, “Benzoic acid phenylester compounds and elastase inhibiting compositions containing the same” (Asahi Kasei Kogyo Kabushiki Kaisha, priority 1990, dated 1992).

What is called IC50 is the concentration that inhibits the measured activity by half.

For the test, the target named is T1, human leukocyte elastase (Homo sapiens, UniProt P08246).
T1 sequence (P08246 30-267): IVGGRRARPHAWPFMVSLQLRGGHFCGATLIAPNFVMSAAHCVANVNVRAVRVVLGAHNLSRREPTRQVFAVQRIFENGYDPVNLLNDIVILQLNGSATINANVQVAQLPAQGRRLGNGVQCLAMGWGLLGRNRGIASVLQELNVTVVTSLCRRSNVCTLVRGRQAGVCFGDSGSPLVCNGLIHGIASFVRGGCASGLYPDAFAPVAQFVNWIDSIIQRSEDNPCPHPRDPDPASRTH
The test is described as follows: in vitro human leukocyte elastase inhibiting activity (fluorogenic substrate, method of JP-A-2-101017 with slight modification). It is filed as biochemical. The protocol: Thus, methoxysuccinyl-Ala-Ala-Pro-Val-7-amido-4-methylcoumarin was used as a substrate for human leukocyte elastase and the 50% inhibitory concentration (IC₅₀) was measured. The enzymatic reaction was carried out in 0.2 M Tris-hydrochloride buffer (containing 0.02 M CaCl₂ and 0.005% Triton X-100) at pH 7.2. Each mixture of test compound solution and the enzyme solution was incubated at 25°C for 20 minutes.

Setting [1] is: 50% inhibitory concentration, substrate methoxysuccinyl-Ala-Ala-Pro-Val-7-amido-4-methylcoumarin, 0.2 M Tris-hydrochloride buffer (0.02 M CaCl2, 0.005% Triton X-100), pH 7.2, compound and enzyme incubated at 25°C for 20 minutes, read-out: IC50.

Read-outs that look alike come from different tables or passages of the source.

Compound `CC(C)C(=O)Nc1ccc(C(=O)Oc2cc(Cl)cc(OC(=O)N(C)C)c2)cc1` [Compound 81, 3-chloro-5-(dimethylaminocarbonyloxy)phenyl 4-(isobutanoylamino)benzoate] showed a 50% inhibitory concentration (IC50) of 6.5 nM.

As for `CC(C)C(=O)Nc1ccc(C(=O)Oc2cc(Cl)cc(OS(C)(=O)=O)c2)cc1` [Compound 82, 3-chloro-5-(methanesulfonyloxy)phenyl 4-(isobutanoylamino)benzoate], the IC50 under setting [1] came out at 18 nM.

On to `CCS(=O)(=O)Oc1cc(Cl)cc(OC(=O)c2ccc(NC(=O)C(C)C)cc2)c1` [Compound 83, 3-chloro-5-(ethanesulfonyloxy)phenyl 4-(isobutanoylamino)benzoate], for which, under setting [1], the IC50 was 25 nM.

For the compound `CC(C)C(=O)Nc1ccc(C(=O)Oc2cc(Cl)cc(OS(=O)(=O)Cc3ccccc3)c2)cc1` [Compound 84, 3-chloro-5-(phenylmethanesulfonyloxy)phenyl 4-(isobutanoylamino)benzoate], the 50% inhibitory concentration (IC50) under setting [1] came to 21 nM.

On to `CC(C)C(=O)Nc1ccc(C(=O)Oc2cc(Cl)cc(OS(=O)(=O)c3ccccc3)c2)cc1` [Compound 85, 3-benzenesulfonyloxy-5-chlorophenyl 4-(isobutanoylamino)benzoate], for which the half-maximal inhibitory concentration (IC50) under setting [1] turned out to be 24 nM.

With `CC(C)C(=O)Nc1ccc(C(=O)Oc2cc(Cl)cc(OS(=O)(=O)C=Cc3ccccc3)c2)cc1` [Compound 86, 3-chloro-5-(β-styrenesulfonyloxy)phenyl 4-(isobutanoylamino)benzoate], under setting [1], the half-maximal inhibitory concentration (IC50) is 24 nM.

For `CC(C)C(=O)Nc1ccc(C(=O)Oc2cc(Cl)cc(OS(=O)(=O)c3cccs3)c2)cc1` [Compound 87, 3-chloro-5-(2-thiophenesulfonyloxy)phenyl 4-(isobutanoylamino)benzoate], the half-maximal inhibitory concentration (IC50) under setting [1] came to 19 nM.

Turning to `CC(C)C(=O)Nc1ccc(C(=O)Oc2cc(Cl)cc(OCc3ccccc3)c2)cc1` [Compound 88, 3-benzyloxy-5-chlorophenyl 4-(isobutanoylamino)benzoate], under setting [1], the IC50 worked out at 48 nM.

Take `CC(C)C(=O)Nc1ccc(C(=O)Oc2cccc(OC(F)(F)F)c2)cc1` [Compound 89, 3-trifluoromethoxyphenyl 4-(isobutanoylamino)benzoate]: the half-inhibitory concentration (IC50) under setting [1] was 400 nM.

As to `COc1cc(Cl)cc(OC(=O)c2ccc(NC(=O)C(C)C)cc2)c1` [Compound 90, 3-chloro-5-methoxyphenyl 4-(isobutanoylamino)benzoate], the 50% inhibitory concentration (IC50) under setting [1] was determined as 11 nM.

Take `COc1cc(OC)cc(OC(=O)c2ccc(NC(=O)C(C)C)cc2)c1` [Compound 91, 3,5-dimethoxyphenyl 4-(isobutanoylamino)benzoate]: the IC50 under setting [1] stood at 300 nM.

`CC(C)C(=O)Nc1ccc(C(=O)Oc2cccc([N+](=O)[O-])c2)cc1` [Compound 92, 3-nitrophenyl 4-(isobutanoylamino)benzoate]: under setting [1], the IC50 was found to be 91 nM.

As to `CC(=O)Oc1cc(C#N)cc(OC(=O)c2ccc(NC(=O)C(C)C)cc2)c1` [Compound 93, 3-cyano-5-acetoxyphenyl 4-(isobutanoylamino)benzoate], under setting [1], the IC50 is 36 nM.

In the case of `CC(C)C(=O)Nc1ccc(C(=O)Oc2cccc(C(F)(F)F)c2)cc1` [Compound 94, 3-trifluoromethylphenyl 4-(isobutanoylamino)benzoate], under setting [1], the IC50 came out at 240 nM.

On to `N=C(N)Nc1ccc(C(=O)Oc2cc(Cl)cc(Cl)c2)cc1` [Compound 95, reference compound], for which the IC50 under setting [1] was found to be 570 nM.
